29 molecules from patent US12410160B2 (Gilead Sciences, Inc., priority 2021, dated 2025) can be followed below.

Usually IC50 stands for the concentration that gives 50% inhibition. A higher IC50 goes with weaker potency.

Some results are limits rather than exact numbers.

The target in one assay is human KHK-C (Homo sapiens (Human), UniProt P50053). The assay is described as follows: KHK Biochemical Assay (IC50), ADP-Glo, KHK-C. As to conditions: average of at least two separate assays. Summed up:
(§1)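 His-tagged enzyme expressed in BL21 (DE3), Ni-NTA purified. Compounds, serially diluted 1:3 in DMSO, pre-incubated 30 min with enzyme in 50 mM Hepes pH 7.4, 140 mM KCl, 5 mM MgCl2, 0.01% Triton-X, then ATP and fructose added; 4 h at room temperature. ADP formation read by ADP-Glo luminescence.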

The target of the next assay is human KHK-A (Homo sapiens (Human), UniProt P50053). The assay is described as follows: KHK Biochemical Assay (IC50), ADP-Glo, KHK-A. As to conditions: average of at least two separate assays. Summed up:
as §1
A general note: ADP-Glo turns the ADP formed in a reaction into a luminescent signal.

Sequence of human KHK-C (P50053 whole entry): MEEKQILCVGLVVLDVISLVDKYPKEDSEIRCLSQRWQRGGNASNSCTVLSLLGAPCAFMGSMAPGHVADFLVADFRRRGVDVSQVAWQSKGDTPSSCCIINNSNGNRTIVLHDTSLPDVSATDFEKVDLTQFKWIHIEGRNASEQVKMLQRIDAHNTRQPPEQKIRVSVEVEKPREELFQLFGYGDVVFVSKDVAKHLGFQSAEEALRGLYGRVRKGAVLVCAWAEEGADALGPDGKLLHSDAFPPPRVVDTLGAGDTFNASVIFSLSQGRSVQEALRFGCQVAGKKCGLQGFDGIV
Sequence of human KHK-A (P50053 other isoform, or with tags, fused parts or gaps): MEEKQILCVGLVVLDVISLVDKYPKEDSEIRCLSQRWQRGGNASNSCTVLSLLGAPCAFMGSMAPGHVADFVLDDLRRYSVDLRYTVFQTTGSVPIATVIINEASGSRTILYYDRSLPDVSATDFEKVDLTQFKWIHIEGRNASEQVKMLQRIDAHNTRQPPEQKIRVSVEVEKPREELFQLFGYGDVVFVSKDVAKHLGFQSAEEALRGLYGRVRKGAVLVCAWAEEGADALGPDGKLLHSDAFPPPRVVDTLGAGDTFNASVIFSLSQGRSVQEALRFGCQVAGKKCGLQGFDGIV

For the molecule `C[C@H]1[C@H](O)CN1c1nc2c(c(-c3ccc(C4(N)CC4)cc3)n1)CCC2` [Example 301, (2S,3R)-1-(4-(4-(1-aminocyclopropyl)phenyl)-6,7-dihydro-5H-cyclopenta[d]pyrimidin-2-yl)-2-methylazetidin-3-ol], the half-maximal inhibitory concentration (IC50) against human KHK-C (ADP-Glo) turned out to be 3.7 nM; on human KHK-A (ADP-Glo) it was 9.9 nM.
On to `C[C@H]1CCN1c1nc2c(c(-c3ccc(C4(N5CCN(C)CC5)CC4)cc3)n1)CCC2` [Example 302, (S)-2-(2-methylazetidin-1-yl)-4-(4-(1-(4-methylpiperazin-1-yl)cyclopropyl)phenyl)-6,7-dihydro-5H-cyclopenta[d]pyrimidine], for which the IC50 at human KHK-C (ADP-Glo) is 849 nM; at human KHK-A (ADP-Glo), 636 nM.
In the same order, the values of `C[C@H]1CCN1c1nc2c(c(-c3ccc(C4(N5CCOCC5)CC4)cc3)n1)CCC2` [Example 304, (S)-4-(1-(4-(2-(2-methylazetidin-1-yl)-6,7-dihydro-5H-cyclopenta[d]pyrimidin-4-yl)phenyl)cyclopropyl)morpholine] are 786 nM and 983 nM.
In the same order, the values of `Cc1ncc(-c2nc(N3CC[C@@H]3C)nc3c2CCC3)o1` [Example 325, 2-methyl-5-[2-[(2S)-2-methylazetidin-1-yl]-6,7-dihydro-5H-cyclopenta[d]pyrimidin-4-yl]oxazole] are 452 nM and 440 nM.
`Cc1cc(-c2nc(N3CC[C@@H]3C)nc3c2CCC3)on1` [Example 326, 3-methyl-5-[2-[(2S)-2-methylazetidin-1-yl]-6,7-dihydro-5H-cyclopenta[d]pyrimidin-4-yl]isoxazole]: the IC50 against human KHK-C (ADP-Glo) was determined as 228 nM; at human KHK-A (ADP-Glo), 231 nM.
For the molecule `Cc1cc(-c2nc(N3CC[C@@H]3C)nc3c2CCC3)sn1` [Example 327, 3-methyl-5-[2-[(2S)-2-methylazetidin-1-yl]-6,7-dihydro-5H-cyclopenta[d]pyrimidin-4-yl]isothiazole], the IC50 against human KHK-C (ADP-Glo) is 38.2 nM; on human KHK-A (ADP-Glo), 96.8 nM.
In the same order, the values of `C[C@H]1CCN1c1nc2c(c(-c3cccc(CNC(=O)OC(C)(C)C)c3)n1)CCC2` [Example 328, tert-butyl N-[[3-[2-[(2S)-2-methylazetidin-1-yl]-6,7-dihydro-5H-cyclopenta[d]pyrimidin-4-yl]phenyl]methyl]carbamate] are 502 nM and 609 nM.
Take `C[C@H]1CCN1c1nc2c(c(-c3ccccc3)n1)CC1(CC1)C2` [Example 335, 2-[(2S)-2-methylazetidin-1-yl]-4-phenyl-spiro[5,7-dihydrocyclopenta[d]pyrimidine-6,1′-cyclopropane]]: the IC50 against human KHK-C (ADP-Glo) and at human KHK-A (ADP-Glo) was above 50000 nM each time.
Consider `CC1CCc2c(-c3ccccc3)nc(N3CC[C@@H]3C)nc21` (stereo partly drawn) [Example 336, 7-methyl-2-[(2S)-2-methylazetidin-1-yl]-4-phenyl-6,7-dihydro-5H-cyclopenta[d]pyrimidine], for which the 50% inhibitory concentration (IC50) is 20100 nM at human KHK-C (ADP-Glo) and 13200 nM at human KHK-A (ADP-Glo).
Taken in the same sequence, the figures for `CC1Cc2nc(N3CC[C@@H]3C)nc(-c3ccccc3)c2C1` (stereo partly drawn) [Example 337, 6-methyl-2-[(2S)-2-methylazetidin-1-yl]-4-phenyl-6,7-dihydro-5H-cyclopenta[d]pyrimidine] were 5100 nM and 2950 nM.
For the molecule `C[C@H]1CCN1c1nc(-c2ccccc2)c2c(n1)C1(CC2)CC1` [Example 338, 2-[(2S)-2-methylazetidin-1-yl]-4-phenyl-spiro[5,6-dihydrocyclopenta[d]pyrimidine-7,1′-cyclopropane]], the IC50 at human KHK-C (ADP-Glo) and on human KHK-A (ADP-Glo) was above 50000 nM throughout.
Regarding `CC1CCc2nc(N3CC[C@@H]3C)nc(-c3ccccc3)c21` (stereo partly drawn) [Example 339, 5-methyl-2-[(2S)-2-methylazetidin-1-yl]-4-phenyl-6,7-dihydro-5H-cyclopenta[d]pyrimidine], the IC50 on human KHK-C (ADP-Glo) is 2220 nM; against human KHK-A (ADP-Glo), 1900 nM.
In the same order, the values of `Cc1cnc(-c2nc(N3CC[C@@H]3C)nc3c2CCC3)s1` [Example 342, 5-methyl-2-[2-[(2S)-2-methylazetidin-1-yl]-6,7-dihydro-5H-cyclopenta[d]pyrimidin-4-yl]thiazole] are 107 nM and 107 nM.
Consider `C[C@H]1CCN1c1nc2c(c(-c3ccnnc3)n1)CCC2` [Example 343, 2-[(2S)-2-methylazetidin-1-yl]-4-pyridazin-4-yl-6,7-dihydro-5H-cyclopenta[d]pyrimidine], for which the 50% inhibitory concentration (IC50) at human KHK-C (ADP-Glo) was 408 nM; against human KHK-A (ADP-Glo) it was 357 nM.
`C[C@H]1CCN1c1nc2c(c(-c3cnccn3)n1)CCC2` [Example 344, 2-[(2S)-2-methylazetidin-1-yl]-4-pyrazin-2-yl-6,7-dihydro-5H-cyclopenta[d]pyrimidine]: the IC50 on human KHK-C (ADP-Glo) was 224 nM; against human KHK-A (ADP-Glo) it was 175 nM.
Taken in the same sequence, the figures for `C[C@H]1CCN1c1nc2c(c(-c3ccc(S(C)(=O)=O)cc3)n1)CCC2` [Example 354, 2-[(2S)-2-methylazetidin-1-yl]-4-(4-methylsulfonylphenyl)-6,7-dihydro-5H-cyclopenta[d]pyrimidine] were 138 nM and 177 nM.
Taken in the same sequence, the figures for `Cc1cc(-c2nc(N3CC[C@@H]3C)nc3c2CCC3)ccc1C(=O)NCCO` [Example 356, N-(2-hydroxyethyl)-2-methyl-4-[2-[(2S)-2-methylazetidin-1-yl]-6,7-dihydro-5H-cyclopenta[d]pyrimidin-4-yl]benzamide] were 79.9 nM and 70.6 nM.
In the same order, the values of `Cc1cc(-c2nc(N3CC[C@@H]3C)nc3c2CCC3)ccc1C(=O)N(C)C` [Example 357, N,N,2-trimethyl-4-[2-[(2S)-2-methylazetidin-1-yl]-6,7-dihydro-5H-cyclopenta[d]pyrimidin-4-yl]benzamide] are 162 nM and 122 nM.
Turning to `C[C@H]1CCN1c1nc2c(c(-c3ccc(CNC(=O)c4ccccc4)cc3)n1)CCC2` [Example 360, N-[[4-[2-[(2S)-2-methylazetidin-1-yl]-6,7-dihydro-5H-cyclopenta[d]pyrimidin-4-yl]phenyl]methyl]benzamide], the IC50 against human KHK-C (ADP-Glo) is 253 nM; on human KHK-A (ADP-Glo), 169 nM.
Taken in the same sequence, the figures for `C[C@H]1[C@H](O)CN1c1nc2c(c(-c3ccc(CN)s3)n1)CCC2` [Example 363, (2S,3R)-1-[4-[5-(aminomethyl)-2-thienyl]-6,7-dihydro-5H-cyclopenta[d]pyrimidin-2-yl]-2-methyl-azetidin-3-ol] were 29.1 nM and 25.8 nM.
Taken in the same sequence, the figures for `C[C@H]1CCN1c1nc2c(c(-c3ccc(CN4CCOCC4)cc3)n1)CCC2` [Example 367, 4-[[4-[2-[(2S)-2-methylazetidin-1-yl]-6,7-dihydro-5H-cyclopenta[d]pyrimidin-4-yl]phenyl]methyl]morpholine] were 176 nM and 224 nM.
In the same order, the values of `C[C@H]1CCN1c1nc2c(c(-c3ccc(CN(C)C)cc3)n1)CCC2` [Example 368, N,N-dimethyl-1-[4-[2-[(2S)-2-methylazetidin-1-yl]-6,7-dihydro-5H-cyclopenta[d]pyrimidin-4-yl]phenyl]methanamine] are 20 nM and 38.3 nM.
Turning to `C[C@H]1CCN1c1nc2c(c(-c3ccc(C(C)(C)O)cc3)n1)CCC2` [Example 369, 2-[4-[2-[(2S)-2-methylazetidin-1-yl]-6,7-dihydro-5H-cyclopenta[d]pyrimidin-4-yl]phenyl]propan-2-ol], the results for the 50% inhibitory concentration (IC50) against human KHK-C (ADP-Glo) and on human KHK-A (ADP-Glo) were 87.1 nM and 186 nM, respectively.
Regarding `C[C@H]1CCN1c1nc2c(c(-c3cccc(C(N)=O)c3)n1)C1CC1C2` (stereo partly drawn) [Example 445, 3-(2-((S)-2-methylazetidin-1-yl)-4b,5,5a,6-tetrahydrocyclopropa[3,4]cyclopenta[1,2-d]pyrimidin-4-yl)benzamide], the values for the IC50 at human KHK-C and on human KHK-A were 306 nM and 130 nM, respectively.
In the same order, the values of `C[C@H]1CCN1c1nc2c(c(-c3ccc4c(c3)[nH]c(=O)n4C)n1)CCC2` [Example 452, 3-methyl-6-[2-[(2S)-2-methylazetidin-1-yl]-6,7-dihydro-5H-cyclopenta[d]pyrimidin-4-yl]-1H-benzimidazol-2-one] are 68.3 nM and 103 nM.
Taken in the same sequence, the figures for `C[C@H]1[C@H](O)CN1c1nc(-c2ccc3c(c2)OCC32COCC(=O)N2)c2c(n1)C(F)(F)CC2` (stereo partly drawn) [Example 497, 6-(7,7-difluoro-2-((2S,3R)-3-hydroxy-2-methylazetidin-1-yl)-6,7-dihydro-5H-cyclopenta[d]pyrimidin-4-yl)-2H-spiro[benzofuran-3,3′-morpholin]-5′-one] were 0.1 nM and 2.2 nM.
Taken in the same sequence, the figures for `C[C@H]1[C@H](O)CN1c1nc(-c2ccc(OC3CC3)c(S(C)(=N)=O)c2)c2c(n1)C(F)(F)CC2` (stereo partly drawn) [Example 541, (2-cyclopropoxy-5-(7,7-difluoro-2-((2S,3R)-3-hydroxy-2-methylazetidin-1-yl)-6,7-dihydro-5H-cyclopenta[d]pyrimidin-4-yl)phenyl)(imino)(methyl)-λ^6-sulfanone] were 1.3 nM and 0.9 nM.
Take `C[C@H]1[C@H](O)CN1c1nc(-c2ccc3c(c2)CCC32COCC(=O)N2)c2c(n1)C(F)(F)CC2` (stereo partly drawn) [Example 548, 5-(7,7-difluoro-2-((2S,3R)-3-hydroxy-2-methylazetidin-1-yl)-6,7-dihydro-5H-cyclopenta[d]pyrimidin-4-yl)-2,3-dihydrospiro[indene-1,3′-morpholin]-5′-one]: the 50% inhibitory concentration (IC50) against human KHK-C turned out to be 0.1 nM; against human KHK-A, 7.3 nM.
For the molecule `C[C@H]1[C@H](O)CN1c1nc(-c2ccc3c(c2)OCCC32NC(=O)NC2=O)c2c(n1)C(F)(F)CC2` (stereo partly drawn) [Example 551, 7-(7,7-difluoro-2-((2S,3R)-3-hydroxy-2-methylazetidin-1-yl)-6,7-dihydro-5H-cyclopenta[d]pyrimidin-4-yl)spiro[chromane-4,4′-imidazolidine]-2′,5′-dione], the concentration for half-maximal inhibition (IC50) on human KHK-C is 0.9 nM; against human KHK-A, 5.1 nM.
